Experimental data: patent US20060263802A1 (priority 2003, published 2006)

How the values were obtained:
Type in all cases: binding
[1] = test system: human monoclonal antibody CRJA
[2] = test system: human monoclonal antibody CRJB
[3] = test system: human monoclonal antibody CR57
[4] = test system: human monoclonal antibody CR57; remark: listed apart in the source
[5] = test system: human monoclonal antibody CRJB; remark: listed apart in the source
[6] = test system: human monoclonal antibody CRJA; remark: listed apart in the source

| Sequence | Binding of CRJA to linear peptide (PEPSCAN-ELISA signal) [1] | Binding of CRJB to linear peptide (PEPSCAN-ELISA signal) [2] | Binding of CR57 (10 μg/ml) to looped/cyclic peptide (PEPSCAN-ELISA signal) [3] | Binding of CR57 to linear peptide (PEPSCAN-ELISA signal) [4] | Binding of CRJB (10 μg/ml) to looped/cyclic peptide (PEPSCAN-ELISA signal) [5] | Binding of CRJA (10 μg/ml) to looped/cyclic peptide (PEPSCAN-ELISA signal) [6] | Binding of CR57 (10 μg/ml) to looped/cyclic peptide (PEPSCAN-ELISA) [3] | Binding of CRJB (10 μg/ml) to looped/cyclic peptide (PEPSCAN-ELISA) [5] | Binding of CRJA (10 μg/ml) to looped/cyclic peptide (PEPSCAN-ELISA) [6] | Binding of human monoclonal antibody CRJA to linear peptide (PEPSCAN-ELISA signal) [1] | Binding of human monoclonal antibody CRJB to linear peptide (PEPSCAN-ELISA signal) [2] | Binding of CR57 to looped/cyclic peptide (PEPSCAN-ELISA signal) [3] | Binding of human monoclonal antibody CR57 to linear peptide (PEPSCAN-ELISA signal) [4] | Binding of CRJB to looped/cyclic peptide (PEPSCAN-ELISA signal) [5] | Binding of CRJA to looped/cyclic peptide (PEPSCAN-ELISA signal) [6] | binding of antibody CR57 to linear peptide (PEPSCAN OD) [4] | binding of antibody CR57 to looped/cyclic peptide (PEPSCAN OD) [3] |
| --- | --- | --- | --- | --- | --- | --- | --- | --- | --- | --- | --- | --- | --- | --- | --- | --- | --- |
| NLSGFSYMELKVGYI | 94 | 115 | 68 | 61 | 83 | 90 |  |  |  |  |  |  |  |  |  |  |  |
| KLGPWSPIDIHHLSC | 72 | 105 | 97 | 72 | 65 | 85 |  |  |  |  |  |  |  |  |  |  |  |
| NKTLMEADAHYKSVR | 94 | 116 |  | 104 |  |  | 120 | 97 | 98 |  |  |  |  |  |  |  |  |
| TVFKDGDEAEDFVEV |  |  |  |  |  |  |  |  |  | 92 | 124 | 111 | 107 | 90 | 110 |  |  |
| SGVAVSSTYCSTNHD | 84 | 110 | 79 | 79 | 55 | 90 |  |  |  |  |  |  |  |  |  |  |  |
| VNGVFFNGIILGPDG | 94 | 116 |  | 68 |  |  | 90 | 96 | 78 |  |  |  |  |  |  |  |  |
| VTTTFKRKHFRPTPD | 77 | 105 | 101 | 79 | 83 | 89 |  |  |  |  |  |  |  |  |  |  |  |
| GTWVAMQTSNETKWC | 61 | 113 |  | 58 |  |  | 71 | 85 | 62 |  |  |  |  |  |  |  |  |
| ALESIMTTKSVSFRR | 107 | 132 |  | 97 |  |  | 136 | 111 | 108 |  |  |  |  |  |  |  |  |
| STYCSTNHDYTIWMP | 79 | 99 | 90 | 86 | 82 | 90 |  |  |  |  |  |  |  |  |  |  |  |
| YTILDKLGPWSPIDI | 93 | 114 | 75 | 48 | 73 | 91 |  |  |  |  |  |  |  |  |  |  |  |
| LKGACKLKLCGVLGL | 100 | 90 |  | 340 |  |  | 105 | 76 | 87 |  |  |  |  |  |  | bound |  |
| LVIISPSVADLDPYD | 104 | 107 | 98 | 85 | 102 | 117 |  |  |  |  |  |  |  |  |  |  |  |
| SKGSETCGFVDERGL | 104 | 102 |  | 92 |  |  | 104 | 77 | 99 |  |  |  |  |  |  |  |  |
| TNLSGFSYMELKVGY | 102 | 106 | 39 | 43 | 107 | 85 |  |  |  |  |  |  |  |  |  |  |  |
| WNEILPSKGCLRVGG | 98 | 136 |  | 102 |  |  | 112 | 98 | 96 |  |  |  |  |  |  |  |  |
| HYKSVRTWNEILPSK | 87 | 130 |  | 80 |  |  | 112 | 101 | 100 |  |  |  |  |  |  |  |  |
| SNETKWCPPDQLVNL | 94 | 129 |  | 99 |  |  | 129 | 93 | 102 |  |  |  |  |  |  |  |  |
| SPIDIHHLSCPNNLV | 100 | 85 | 94 | 74 | 72 | 92 |  |  |  |  |  |  |  |  |  |  |  |
| RASKGSETCGFVDER | 90 | 110 |  | 86 |  |  | 105 | 90 | 100 |  |  |  |  |  |  |  |  |
| GKAYTIFNKTLMEAD | 100 | 127 |  | 76 |  |  | 114 | 100 | 107 |  |  |  |  |  |  |  |  |
| HLSCPNNLVVEDEGC | 76 | 119 | 76 | 65 | 64 | 92 |  |  |  |  |  |  |  |  |  |  |  |
| RVGGRCHPHVNGVFF | 93 | 143 |  | 86 |  |  | 107 | 104 | 117 |  |  |  |  |  |  |  |  |
| KMAGDPRYEESLHNP | 48 | 102 | 49 | 62 | 45 | 38 |  |  |  |  |  |  |  |  |  |  |  |
| VAVSSTYCSTNHDYT | 106 | 114 | 103 | 85 | 83 | 88 |  |  |  |  |  |  |  |  |  |  |  |
| IWMPENPRLGMSCDI | 87 | 110 | 329 | 98 | 156 | 152 |  |  |  |  |  |  |  |  |  |  | clearly bound |
| EGCTNLSGFSYMELK | 59 | 114 | 39 | 51 | 73 | 38 |  |  |  |  |  |  |  |  |  |  |  |
| FGKAYTIFNKTLMEA | 85 | 151 |  | 90 |  |  | 114 | 78 | 96 |  |  |  |  |  |  |  |  |
| CPNNLVVEDEGCTNL | 75 | 97 | 79 | 77 | 54 | 84 |  |  |  |  |  |  |  |  |  |  |  |
